From ChEMBL document CHEMBL1201861, “Genomics of Drug Sensitity in Cancer screening data, Wellcome Trust Sanger Institute”

Tests used:
Assay in all cases: cells
COR-L23 = assay type: functional, cell-based; details: Homo sapiens;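 note: cell viability assay measuring how strongly compounds suppress growth of COR-L23 cells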
Description: SANGER: Inhibition of human COR-L23 cell growth in a cell viability assay.

Ca9-22 = assay type: functional, cell-based; details: Homo sapiens;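 note: growth inhibition of Ca9-22 cells, read out with a cell viability assay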
Description: SANGER: Inhibition of human Ca9-22 cell growth in a cell viability assay.

Calu-3 = assay type: functional, cell-based; details: Homo sapiens;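 note: growth inhibition of human Calu-3 cells, determined with a cell viability assay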
Description: SANGER: Inhibition of human Calu-3 cell growth in a cell viability assay.

D-336MG = assay type: functional, cell-based, Homo sapiens; details: Homo sapiens, D-336MG
Description: SANGER: Inhibition of human D-336MG cell growth in a cell viability assay.

D-542MG = assay type: functional, cell-based; details: Homo sapiens
Description: SANGER: Inhibition of human D-542MG cell growth in a cell viability assay.

DBTRG-05MG = assay type: functional, cell-based; details: Homo sapiens;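 note: cell viability assay measuring growth inhibition of human DBTRG-05MG cells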
Description: SANGER: Inhibition of human DBTRG-05MG cell growth in a cell viability assay.

Daoy = assay type: functional, cell-based; details: Homo sapiens;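 note: daoy cell growth inhibition, read out as cell viability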
Description: SANGER: Inhibition of human Daoy cell growth in a cell viability assay.

Detroit 562 = assay type: functional, cell-based; details: Homo sapiens;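 note: growth inhibition of human Detroit 562 cells, read out by a cell viability assay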
Description: SANGER: Inhibition of human Detroit562 cell growth in a cell viability assay.

EFM-19 = assay type: functional, cell-based; details: Homo sapiens;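 note: growth inhibition of human EFM-19 cells, measured in a cell viability assay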
Description: SANGER: Inhibition of human EFM-19 cell growth in a cell viability assay.

EW-22 = assay type: functional, cell-based; details: Homo sapiens;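 note: growth inhibition of the EW-22 cell line, measured with a cell viability readout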
Description: SANGER: Inhibition of human EW-22 cell growth in a cell viability assay.

HGC-27 = assay type: functional, cell-based; details: Homo sapiens;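 note: growth inhibition of human HGC-27 cells, read out in a cell viability assay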
Description: SANGER: Inhibition of human HGC-27 cell growth in a cell viability assay.

HMV-2 cell line = assay type: functional, cell-based; details: Homo sapiens;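 note: growth inhibition of HMV-II cells, read out with a cell viability assay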
Description: SANGER: Inhibition of human HMV-II cell growth in a cell viability assay.

HN = assay type: functional, cell-based; details: Homo sapiens
Description: SANGER: Inhibition of human HN cell growth in a cell viability assay.

HSC-3 = assay type: functional, cell-based; details: Homo sapiens
Description: SANGER: Inhibition of human HSC-3 cell growth in a cell viability assay.

HT-1080 = assay type: functional, cell-based; details: Homo sapiens
Description: SANGER: Inhibition of human HT-1080 cell growth in a cell viability assay.

HT-3 = assay type: functional, cell-based; details: Homo sapiens;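 note: growth inhibition measured with a cell viability readout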
Description: SANGER: Inhibition of human HT-3 cell growth in a cell viability assay.

HTC-C3 = assay type: functional, cell-based; details: Homo sapiens;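 note: inhibition of cell growth, read out with a cell viability assay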
Description: SANGER: Inhibition of human HTC-C3 cell growth in a cell viability assay.

KMOE-2 = assay type: functional, cell-based, Homo sapiens; details: Homo sapiens, KMOE-2;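 note: growth inhibition of human KMOE-2 cells, read out with a cell viability assay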
Description: SANGER: Inhibition of human KMOE-2 cell growth in a cell viability assay.

KYSE-180 = assay type: functional, cell-based; details: Homo sapiens;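 note: growth inhibition of KYSE-180 cells, read out with a cell viability assay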
Description: SANGER: Inhibition of human KYSE-180 cell growth in a cell viability assay.

MG-63 = assay type: functional, cell-based; details: Homo sapiens;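 note: growth inhibition of human MG-63 cells, read out with a cell viability assay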
Description: SANGER: Inhibition of human MG-63 cell growth in a cell viability assay.

MKN-45 = assay type: functional, cell-based; details: Homo sapiens;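 note: growth inhibition of human MKN-45 cells, measured with a cell viability assay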
Description: SANGER: Inhibition of human MKN45 cell growth in a cell viability assay.

MeWo = assay type: functional, cell-based; details: Homo sapiens;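 note: growth inhibition of MeWo cells, determined by a cell viability readout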
Description: SANGER: Inhibition of human Mewo cell growth in a cell viability assay.

NB14 = assay type: functional, cell-based, Homo sapiens; details: Homo sapiens, NB14;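 note: growth inhibition of NB14 cells measured with a cell viability assay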
Description: SANGER: Inhibition of human NB14 cell growth in a cell viability assay.

NCI-H1437 = assay type: functional, cell-based; details: Homo sapiens;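 note: growth inhibition of human NCI-H1437 cells, read out by a cell viability assay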
Description: SANGER: Inhibition of human NCI-H1437 cell growth in a cell viability assay.

NCI-H1703 = assay type: functional, cell-based; details: Homo sapiens;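 note: growth inhibition of NCI-H1703 cells, read out via a cell viability assay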
Description: SANGER: Inhibition of human NCI-H1703 cell growth in a cell viability assay.

NCI-H1755 = assay type: functional, cell-based; details: Homo sapiens;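 note: cell viability readout used to measure growth inhibition of NCI-H1755 cells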
Description: SANGER: Inhibition of human NCI-H1755 cell growth in a cell viability assay.

NCI-H1793 = assay type: functional, cell-based; details: Homo sapiens;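 note: cell growth inhibition, read out by a cell viability assay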
Description: SANGER: Inhibition of human NCI-H1793 cell growth in a cell viability assay.

NCI-H2009 = assay type: functional, cell-based; details: Homo sapiens;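 note: cell viability assay measuring inhibition of NCI-H2009 cell growth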
Description: SANGER: Inhibition of human NCI-H2009 cell growth in a cell viability assay.

NCI-H2030 = assay type: functional, cell-based; details: Homo sapiens;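 note: growth inhibition of human NCI-H2030 cells, read out by a cell viability assay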
Description: SANGER: Inhibition of human NCI-H2030 cell growth in a cell viability assay.

NCI-H2228 = assay type: functional, cell-based; details: Homo sapiens;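 note: growth inhibition of human NCI-H2228 cells, read out by a cell viability assay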
Description: SANGER: Inhibition of human NCI-H2228 cell growth in a cell viability assay.

NCI-H2347 = assay type: functional, cell-based; details: Homo sapiens;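 note: growth inhibition of the cell line, read out with a cell viability assay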
Description: SANGER: Inhibition of human NCI-H2347 cell growth in a cell viability assay.

PFSK-1 = assay type: functional, cell-based; details: Homo sapiens;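 note: cell viability assay measuring how strongly compounds suppress growth of human PFSK-1 cells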
Description: SANGER: Inhibition of human PFSK-1 cell growth in a cell viability assay.

RD = assay type: functional, cell-based; details: Homo sapiens
Description: SANGER: Inhibition of human RD cell growth in a cell viability assay.

RERF-LC-MS = assay type: functional, cell-based; details: Homo sapiens;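 note: growth inhibition of human RERF-LC-MS cells, read out by a cell viability assay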
Description: SANGER: Inhibition of human RERF-LC-MS cell growth in a cell viability assay.

RO82-W-1 = assay type: functional, cell-based; details: Homo sapiens;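 note: growth inhibition of human RO82-W-1 cells, measured with a cell viability assay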
Description: SANGER: Inhibition of human RO82-W-1 cell growth in a cell viability assay.

RPMI-2650 = assay type: functional, cell-based; details: Homo sapiens
Description: SANGER: Inhibition of human RPMI-2650 cell growth in a cell viability assay.

S-117 = assay type: functional, cell-based; details: Homo sapiens
Description: SANGER: Inhibition of human S-117 cell growth in a cell viability assay.

SK-LU-1 = assay type: functional, cell-based; details: Homo sapiens;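 note: cell viability assay measuring growth inhibition of human SK-LU-1 cells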
Description: SANGER: Inhibition of human SK-LU-1 cell growth in a cell viability assay.

SK-MEL-24 = assay type: functional, cell-based; details: Homo sapiens;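 note: growth inhibition read out by a cell viability assay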
Description: SANGER: Inhibition of human SK-MEL-24 cell growth in a cell viability assay.

SNU-387 = assay type: functional, cell-based; details: Homo sapiens
Description: SANGER: Inhibition of human SNU-387 cell growth in a cell viability assay.

SW13 = assay type: functional, cell-based; details: Homo sapiens;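 note: IC50 is inhibition of SW13 cell growth, read out with a cell viability assay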
Description: SANGER: Inhibition of human SW13 cell growth in a cell viability assay.

SW1417 = assay type: functional, cell-based; details: Homo sapiens;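 note: growth inhibition of human SW1417 cells, read out with a cell viability assay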
Description: SANGER: Inhibition of human SW1417 cell growth in a cell viability assay.

SW626 = assay type: functional, cell-based; details: Homo sapiens;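 note: growth inhibition of SW626 cells, measured with a cell viability assay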
Description: SANGER: Inhibition of human SW626 cell growth in a cell viability assay.

T98G = assay type: functional, cell-based; details: Homo sapiens;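 note: growth inhibition of T98G cells, read out by a cell viability assay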
Description: SANGER: Inhibition of human T98G cell growth in a cell viability assay.

A673 = assay type: functional, cell-based; details: Homo sapiens;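 note: growth inhibition of human A673 cells, read out through a cell viability assay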
Description: SANGER: Inhibition of human A673 cell growth in a cell viability assay.

AGS = assay type: functional, cell-based; details: Homo sapiens;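 note: growth inhibition of AGS cells, determined with a cell viability assay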
Description: SANGER: Inhibition of human AGS cell growth in a cell viability assay.

ASPC1 = assay type: functional, cell-based; details: Homo sapiens;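 note: growth inhibition of AsPC-1 cells, read out with a cell viability assay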
Description: SANGER: Inhibition of human AsPC-1 cell growth in a cell viability assay.

BFTC-905 = assay type: functional, cell-based; details: Homo sapiens
Description: SANGER: Inhibition of human BFTC-905 cell growth in a cell viability assay.

BFTC-909 = assay type: functional, cell-based; details: Homo sapiens
Description: SANGER: Inhibition of human BFTC-909 cell growth in a cell viability assay.

CAL-120 = assay type: functional, cell-based; details: Homo sapiens;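 note: cell growth inhibition, read out as cell viability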
Description: SANGER: Inhibition of human CAL-120 cell growth in a cell viability assay.

CAL-85-1 = assay type: functional, cell-based; details: Homo sapiens;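 note: growth inhibition of human CAL-85-1 cells, read out with a cell viability assay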
Description: SANGER: Inhibition of human CAL-85-1 cell growth in a cell viability assay.

CAPAN-1 = assay type: functional, cell-based; details: Homo sapiens;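 note: growth suppression of CAPAN-1 cells, read out by a cell viability assay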
Description: SANGER: Inhibition of human CAPAN-1 cell growth in a cell viability assay.

NC(=O)Nc1cc(-c2cccc(F)c2)sc1C(=O)N[C@H]1CCCNC1 [AZD-7762]
IC50 (COR-L23): 403 nM
IC50 (Ca9-22): 541 nM
IC50 (Calu-3): > 2000 nM
IC50 (D-336MG): 421 nM
IC50 (D-542MG): > 2000 nM
IC50 (DBTRG-05MG): > 2000 nM
IC50 (Daoy): 451 nM
IC50 (Detroit 562): 333 nM
IC50 (EFM-19): 1480 nM
IC50 (EW-22): 584 nM
IC50 (HGC-27): 491 nM
IC50 (HMV-2 cell line): > 2000 nM
IC50 (HN): 846 nM
IC50 (HSC-3): 486 nM
IC50 (HT-1080): 493 nM
IC50 (HT-3): 490 nM
IC50 (HTC-C3): 835 nM
IC50 (KMOE-2): 1110 nM
IC50 (KYSE-180): 402 nM
IC50 (MG-63): > 2000 nM
IC50 (MKN-45): 280 nM
IC50 (MeWo): 304 nM
IC50 (NB14): 61.4 nM
IC50 (NCI-H1437): > 2000 nM
IC50 (NCI-H1703): 6.43 nM
IC50 (NCI-H1755): 273 nM
IC50 (NCI-H1793): 1610 nM
IC50 (NCI-H2009): > 2000 nM
IC50 (NCI-H2030): 1020 nM
IC50 (NCI-H2228): 1290 nM
IC50 (NCI-H2347): 1240 nM
IC50 (PFSK-1): 411 nM
IC50 (RD): > 2000 nM
IC50 (RERF-LC-MS): 677 nM
IC50 (RO82-W-1): > 2000 nM
IC50 (RPMI-2650): > 2000 nM
IC50 (S-117): 1040 nM
IC50 (SK-LU-1): 84.2 nM
IC50 (SK-MEL-24): > 2000 nM
IC50 (SNU-387): 243 nM
IC50 (SW13): > 2000 nM
IC50 (SW1417): 736 nM
IC50 (SW626): 506 nM
IC50 (T98G): 246 nM
IC50 (A673): 865 nM
IC50 (AGS): 582 nM
IC50 (ASPC1): 664 nM
IC50 (BFTC-905): 985 nM
IC50 (BFTC-909): 588 nM
IC50 (CAL-120): > 2000 nM
IC50 (CAL-85-1): > 2000 nM
IC50 (CAPAN-1): > 2000 nM

CN(NC(=O)CC(=O)NN(C)C(=S)c1ccccc1)C(=S)c1ccccc1 [ELESCLOMOL]
IC50 (COR-L23): > 200 nM
IC50 (Ca9-22): 4.25 nM
IC50 (Calu-3): > 200 nM
IC50 (D-336MG): 23.4 nM
IC50 (D-542MG): > 200 nM
IC50 (DBTRG-05MG): 9.77 nM
IC50 (Daoy): 16.8 nM
IC50 (Detroit 562): 68.9 nM
IC50 (EFM-19): 82.5 nM
IC50 (EW-22): 74.7 nM
IC50 (HGC-27): 7.59 nM
IC50 (HMV-2 cell line): > 200 nM
IC50 (HN): 15.4 nM
IC50 (HSC-3): 3.02 nM
IC50 (HT-1080): 4.99 nM
IC50 (HT-3): > 200 nM
IC50 (HTC-C3): 30.4 nM
IC50 (KMOE-2): 145 nM
IC50 (KYSE-180): 23.8 nM
IC50 (MG-63): > 200 nM
IC50 (MKN-45): 28.7 nM
IC50 (MeWo): 26.3 nM
IC50 (NB14): 6.64 nM
IC50 (NCI-H1437): 87.7 nM
IC50 (NCI-H1703): 3.68 nM
IC50 (NCI-H1755): 13.3 nM
IC50 (NCI-H1793): > 200 nM
IC50 (NCI-H2009): > 200 nM
IC50 (NCI-H2030): 26.4 nM
IC50 (NCI-H2228): 30.9 nM
IC50 (NCI-H2347): 28.7 nM
IC50 (PFSK-1): 12.7 nM
IC50 (RD): 13.1 nM
IC50 (RERF-LC-MS): 8.58 nM
IC50 (RO82-W-1): 26.2 nM
IC50 (RPMI-2650): 34.1 nM
IC50 (S-117): 27.4 nM
IC50 (SK-LU-1): 10.3 nM
IC50 (SK-MEL-24): > 200 nM
IC50 (SNU-387): 9.49 nM
IC50 (SW13): 7.69 nM
IC50 (SW1417): > 200 nM
IC50 (SW626): 54 nM
IC50 (T98G): 34.3 nM
IC50 (A673): 11.6 nM
IC50 (AGS): 2.86 nM
IC50 (ASPC1): 37.7 nM
IC50 (BFTC-905): 20.5 nM
IC50 (BFTC-909): 63.5 nM
IC50 (CAL-120): 14 nM
IC50 (CAL-85-1): 72.7 nM
IC50 (CAPAN-1): > 200 nM
